Laboratory results: patent US20220160712A1, “METHODS OF TREATING RHEUMATOID ARTHRITIS AND FOR PREDICTING THE RESPONSE TO METHOTREXATE” (CHAN ZUCKERBERG BIOHUB, INC., priority 2020, published 2022)

Legend:
Clostridium sporogenes = assay: RNA-seq after MTX treatment; format: cell-based; conditions: MTX 100 μg/ml, 30 minutes; padj<0.2, DESeq
Experimental: Genomes were obtained from NCBI's GenBank Assembly database. Culture media was composed of BHI+and allowed to equilibrate in an anaerobic environment prior to use. Briefly, bacteria were cultured in BHI+at 37° C. in an anaerobic chamber. Cultures for each isolate were grown to mid-exponential (achieving an OD600˜0.5), aliquoted into triplicates, treated for 30 minutes with either DMSO or MTX 100 μg/ml, and then removed from the anaerobic chamber. […]
Total RNA was subjected to rRNA depletion using Ribo-Zero Bacterial rRNA Depletion (Illumina, catalog #: MRZB12424), following the manufacturer's protocol. […] For each sample, fastq files are available in NCBI's Sequence Read Archive (SRA), accession number PRJNA656577.
Reads were trimmed using Trimmomatic (v0.32) (Bolger, A. M., et al., (2014), Bioinformatics 30, 2114-2120), and ribosomal reads were removed using SortMeRNA (v2.1) (Kopylova, E., et al., (2012), Bioinformatics 28, 3211-3217). Reads were mapped to reference genomes using Bowtie2 (Langmead, B., and Salzberg, S. L. (2012), Nat Methods 9, 357-359) using the following options: -q, —met file, —end-to-end, —sensitive. […]

human gut microbiota = assay: MTX treatment of gnotobiotic mice colonized with human stool; 16S-seq and qPCR of gut microbiota; format: in vivo; conditions: for gut microbial community structure, ANOSIM R: p=0.006; for shift in gut microbiota, ANOSIM R: Day 0 vs. 2
[1] = Donor 2, individually housed mice, MTX 50 mg/kg
[2] = combined gnotobiotic experiments, multi-factor design, padj<0.05, DESeq

Structure (SMILES): CN(Cc1cnc2nc(N)nc(N)c2n1)c1ccc(C(=O)N[C@@H](CCC(=O)O)C(=O)O)cc1 [MTX, methotrexate]
- number of differentially expressed genes (Clostridium sporogenes): 21 genes
- Total colonization (16S copy number per gram stool) (human gut microbiota; Donor 1 (healthy) humanized mice, oral vehicle, 1 mg/kg or 50 mg/kg MTX, 4 days): comparable between groups
- microbial richness (number of ASVs) (human gut microbiota; Donor 1 humanized mice, oral vehicle, 1 mg/kg or 50 mg/kg MTX, 4 days): comparable between groups
- number of low-dose ASVs also altered in a consistent direction in the high-dose group (human gut microbiota; Donor 1 mice, 1 mg/kg and 50 mg/kg): 19
- gut microbial community structure, ANOSIM R (human gut microbiota; Donor 1 mice, after 1 day of treatment): 0.60
- gut microbial community structure, ANOSIM R (human gut microbiota; Donor 1 mice, final day of treatment): 0.75
- number of bacterial genera altered (human gut microbiota; Donor 1 mice, high-dose MTX 50 mg/kg): 14
- Bacteroidetes phylum compared to vehicle controls (human gut microbiota; Donor 1 mice, high-dose MTX 50 mg/kg oral, Day 4 DESeq padj=0.001): significantly decreased
- number of amplicon sequence variants (ASVs) altered (human gut microbiota; Donor 1 mice, high-dose MTX 50 mg/kg, DESeq padj<0.01, Day 4): 81
- number of ASVs significantly altered (human gut microbiota; Donor 1 mice, low-dose MTX 1 mg/kg): 26
- Bacteroidetes longitudinal trend, slope (generalized linear mixed-effects model) (human gut microbiota; Donor 1 mice, p=0.007): −0.066
- Microbial richness (human gut microbiota; Donor 2 (treatment naive RA patient), individually housed mice, MTX 50 mg/kg, p=0.4): comparable between groups
- number of ASVs with changed abundance (human gut microbiota; [1]): 23
- number of genera with changed abundance (human gut microbiota; [1]): 8
- phylum level changes (human gut microbiota; [1]): No phylum level changes were detected
- ASV23 (Bacteroides faecichinchillae/faecis/finegoldii/thetaiotaomicron) abundance (human gut microbiota; Donor 2, individually housed mice, high-dose MTX (FIG. 7B)): reduced
- ASV296 (Lachnoclostridium) abundance (human gut microbiota; Donor 2, individually housed mice, high-dose MTX (FIG. 7C)): reduced
- Dielma fastidiosa (ASV72) abundance (human gut microbiota; Donor 2, individually housed mice, high-dose MTX (FIG. 7D)): decreased
- ASV908 (Paraprevotella) abundance (human gut microbiota; Donor 2, individually housed mice, high-dose MTX (FIG. 7E)): increased
- number of ASVs with consistent shifts overlapping between route and rescue (human gut microbiota; Donor 3 mice, MTX 50 mg/kg): 41
- shift in gut microbiota, ANOSIM R (human gut microbiota; Donor 3 mice, rescue experiment (oral MTX with or without folic acid), p=0.002): 0.99
- shift in gut microbiota, ANOSIM R (human gut microbiota; Donor 3 mice, route experiment (oral or IP MTX 50 mg/kg), p=0.007): 0.89
- number of ASVs differentially abundant (human gut microbiota; [2]): 61
- number of genera differentially abundant (human gut microbiota; [2]): 31
- number of phyla differentially abundant (human gut microbiota; [2]): Four
- a-diversity (human gut microbiota; combined gnotobiotic experiments, p>0.05, ANOVA): not affected
